The target in one assay is T1, RET kinase (Homo sapiens, UniProt P07949).
T1 construct: GST tagged recombinant human RET, amino acids 658-1114; GST; purchased Invitrogen; host or cells: insect cells
T1 sequence (P07949 658-1114): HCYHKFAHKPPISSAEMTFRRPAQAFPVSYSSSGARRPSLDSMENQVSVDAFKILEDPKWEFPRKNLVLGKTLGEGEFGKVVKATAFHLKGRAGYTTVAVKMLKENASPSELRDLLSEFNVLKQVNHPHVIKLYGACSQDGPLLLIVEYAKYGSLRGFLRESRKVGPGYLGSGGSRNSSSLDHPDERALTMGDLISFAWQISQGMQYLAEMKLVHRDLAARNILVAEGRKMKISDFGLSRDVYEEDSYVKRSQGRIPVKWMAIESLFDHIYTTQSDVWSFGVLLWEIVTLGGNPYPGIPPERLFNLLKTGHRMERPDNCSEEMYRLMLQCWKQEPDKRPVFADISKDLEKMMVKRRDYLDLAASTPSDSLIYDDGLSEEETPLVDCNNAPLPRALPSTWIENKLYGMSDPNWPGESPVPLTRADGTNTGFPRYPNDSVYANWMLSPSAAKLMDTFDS
The assay can be described thus: RET Kinase Assay. In kind it is biochemical. The conditions noted are these: for pIC50: methods of the Biological Data section; for Fold Selectivity RET/MET: ratio RET IC50 / MET IC50. The protocol:
Activity of RET kinase was determined by following the production of ADP from the kinase reaction through coupling with the pyruvate kinase/lactate dehydrogenase system (see e.g., Schindler et al. Science (2000) 289: 1938-1942). In this assay, the oxidation of NADH (thus the decrease at A340 nm) was continuously monitored spectrophotometrically. The reaction mixture (100 μl) contained RET (amino acid residues 658-1114, from Invitrogen, 2 nM), polyE4Y (1.5 mg/ml), MgCl2 (18 mM), pyruvate kinase (4 units), lactate dehydrogenase (0.7 units), phosphoenol pyruvate (1 mM), and NADH (0.28 mM) in 90 mM […] buffer containing 0.2% octyl-glucoside, 1 mM DTT and 1% DMSO, pH 7.5. Test compounds were incubated with RET kinase and other reaction reagents at 22° C. for <2 min before ATP (500 μM) was added to start the reaction. The absorption at 340 nm was monitored continuously for 3 hours at 30° C. on BioTek Synergy 2 Reader. The reaction rate was calculated using the 1 to 2 h time frame. Percent inhibition was obtained by comparison of reaction rate with that of a control (i.e., with no test compound). IC50 values were calculated from a series of percent inhibition values determined at a range of inhibitor concentrations using software routines as implemented in the GraphPad Prism software package.
GST tagged recombinant human RET, amino acids 658-1114. Expressed in insect cells.

Another assay addresses T2, c-MET kinase (Homo sapiens, UniProt P08581).
T2 construct: His6 with TEV-site leader (N); purchased Invitrogen PV3143
The assay can be described thus: c-MET Kinase Assay. In kind it is biochemical. The conditions noted are these: for pIC50: methods of the Biological Data section; for fold potency versus c-MET kinase relative to corresponding mono-fluoro analog: Compound D vs Compound E, Compound G vs Compound F. As for the experimental part: Activity of c-MET kinase (Seq. ID No. 2) was determined by following the production of ADP from the kinase reaction through coupling with the pyruvate kinase/lactate dehydrogenase system (e.g., Schindler et al. Science 2000, 289, pp. 1938-1942). In this assay, the oxidation of NADH (thus the decrease at A340 nm) was continuously monitored spectrophotometrically. The reaction mixture (100 μl) contained c-MET (c-MET residues: 956-1390, from Invitrogen, catalogue #PV3143, 6 nM), polyE4Y (1 mg/mL), MgCl2 (10 mM), pyruvate kinase (4 units), lactate dehydrogenase (0.7 units), phosphoenol pyruvate (1 mM), and NADH (0.28 mM) in 90 mM Tris buffer containing 0.25 mM DTT, 0.2% octyl-glucoside and 1% DMSO, 7.5. Test compounds were incubated with c-MET (Seq. ID No. 2) and other reaction reagents at 22° C. for 0.5 h before ATP (100 μM) was added to start the reaction. The absorption at 340 nm was monitored continuously for 2 hours at 30° C. on Polarstar Optima plate reader (BMG). The reaction rate was calculated using the 1.0 to 2.0 h time frame. Percent inhibition was obtained by comparison of reaction rate with that of a control (i.e., with no test compound). IC50 values were calculated from a series of percent inhibition values determined at a range of inhibitor concentrations using software routines as implemented in the GraphPad Prism software package.

pIC50: −log10 of the molar value. Bounds are passed on as bounds.

T2 sequence (P08581 with tags, fused parts or gaps): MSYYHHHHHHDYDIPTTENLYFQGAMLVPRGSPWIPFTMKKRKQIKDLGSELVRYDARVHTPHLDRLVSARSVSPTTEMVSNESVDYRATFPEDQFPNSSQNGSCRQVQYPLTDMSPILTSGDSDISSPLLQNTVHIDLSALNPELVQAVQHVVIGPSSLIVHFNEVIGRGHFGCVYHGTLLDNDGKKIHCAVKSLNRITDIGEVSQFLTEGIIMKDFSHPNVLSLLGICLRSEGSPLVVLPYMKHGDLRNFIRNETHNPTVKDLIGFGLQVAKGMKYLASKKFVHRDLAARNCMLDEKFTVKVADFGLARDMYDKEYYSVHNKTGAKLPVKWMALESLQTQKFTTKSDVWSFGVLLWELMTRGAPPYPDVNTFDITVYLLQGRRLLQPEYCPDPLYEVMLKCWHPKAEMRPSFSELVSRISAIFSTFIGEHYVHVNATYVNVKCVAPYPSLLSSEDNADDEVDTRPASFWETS

As usually defined, the pIC50 is −log10 of the IC50, conventionally taken in molar units. On to `CC(=O)Nc1cc(Oc2ccc(NC(=O)C3(C(=O)Nc4ccc(F)cc4)CC3)c(F)c2)ccn1` [Compound E, N-(4-(2-acetamidopyridin-4-yloxy)-2-fluorophenyl)-N′-(4-fluorophenyl)cyclopropane-1,1-dicarboxamide], for which, at RET kinase, the pIC50 was 7.37 and the “Fold Selectivity RET/MET” value is listed as 1.65. The compound further gave a pIC50 on c-MET kinase of 7.59.
With `CC(=O)Nc1cc(Oc2cc(F)c(NC(=O)C3(C(=O)Nc4ccc(F)cc4)CC3)cc2F)ccn1` [Compound D, N-(4-(2-acetamidopyridin-4-yloxy)-2,5-difluorophenyl)-N′-(4-fluorophenyl)cyclopropane-1,1-dicarboxamide], on RET kinase, the pIC50 was under 5.48 and the “Fold Selectivity RET/MET” value is on record as over 825. Further, at c-MET kinase, the “fold potency versus c-MET kinase relative to corresponding mono-fluoro analog” value is on record as 6.5 fold and the negative logarithm of the IC50 (pIC50) was 8.40.
For `O=C(Nc1cc(Oc2cc(F)c(NC(=O)C3(C(=O)Nc4ccc(F)cc4)CC3)cc2F)ccn1)N1CC(CO)C1` [Compound H], at RET kinase, the “Fold Selectivity RET/MET” value stood at 7.
With `CN1CCN(C2CCN(C(=O)Nc3cc(Oc4cc(F)c(NC(=O)C5(C(=O)Nc6ccc(F)cc6)CC5)cc4F)ccn3)CC2)CC1` [Compound G], the “Fold Selectivity RET/MET” value at RET kinase was 0.81. For the same compound, the “fold potency versus c-MET kinase relative to corresponding mono-fluoro analog” value at c-MET kinase is on record as 1.1 fold.

Source of the values: patent publication US8637672B2 (Deciphera Pharmaceuticals, LLC, priority 2010, dated 2014).
